The text below walks through data of ChEMBL document CHEMBL5030516, “Fighting Shigella by Blocking Its Disease-Causing Toxin” (J Med Chem, 2021).

This test is described as follows: Inhibition of C-terminal 6XHis-tagged Shigella dysenteriae Stx1b (21 to 89 residues) expressed in Escherichia coli BL21 for 1 hr by ELISA assay. A general note: ELISA stands for enzyme-linked immunosorbent assay.

Compound `O=C(NCCOc1cc(OCCNC(=O)OCc2cn([C@@H]3O[C@H](CO)[C@H](O[C@H]4O[C@H](CO)[C@H](O)[C@H](O)[C@H]4O)[C@H](O)[C@H]3O)nn2)cc(C(=O)O)c1)OCc1cn([C@@H]2O[C@H](CO)[C@H](O[C@H]3O[C@H](CO)[C@H](O)[C@H](O)[C@H]3O)[C@H](O)[C@H]2O)nn1` registered an IC50 of 1.24 mM.
As for `O=C(O)c1cc(OCCNC(=O)c2cc(OCc3cn([C@@H]4O[C@H](CO)[C@H](O[C@H]5O[C@H](CO)[C@H](O)[C@H](O)[C@H]5O)[C@H](O)[C@H]4O)nn3)cc(OCc3cn([C@@H]4O[C@H](CO)[C@H](O[C@H]5O[C@H](CO)[C@H](O)[C@H](O)[C@H]5O)[C@H](O)[C@H]4O)nn3)c2)cc(OCCNC(=O)c2cc(OCc3cn([C@@H]4O[C@H](CO)[C@H](O[C@H]5O[C@H](CO)[C@H](O)[C@H](O)[C@H]5O)[C@H](O)[C@H]4O)nn3)cc(OCc3cn([C@@H]4O[C@H](CO)[C@H](O[C@H]5O[C@H](CO)[C@H](O)[C@H](O)[C@H]5O)[C@H](O)[C@H]4O)nn3)c2)c1`, the IC50 came out at 0.0199 mM.
The result for `O=C(O)c1cc(OCc2cn([C@@H]3O[C@H](CO)[C@H](O[C@H]4O[C@H](CO)[C@H](O)[C@H](O)[C@H]4O)[C@H](O)[C@H]3O)nn2)cc(OCc2cn([C@@H]3O[C@H](CO)[C@H](O[C@H]4O[C@H](CO)[C@H](O)[C@H](O)[C@H]4O)[C@H](O)[C@H]3O)nn2)c1` reads 1.07 mM; that for `[N-]=[N+]=N[C@@H]1O[C@H](CO)[C@H](O[C@H]2O[C@H](CO)[C@H](O)[C@H](O)[C@H]2O)[C@H](O)[C@H]1O`, 4.97 mM.
The figure for `O=C(NCCCCCCCCCCCCNC(=O)c1cc(OCc2cn([C@@H]3O[C@H](CO)[C@H](O[C@H]4O[C@H](CO)[C@H](O)[C@H](O)[C@H]4O)[C@H](O)[C@H]3O)nn2)cc(OCc2cn([C@@H]3O[C@H](CO)[C@H](O[C@H]4O[C@H](CO)[C@H](O)[C@H](O)[C@H]4O)[C@H](O)[C@H]3O)nn2)c1)c1cc(OCc2cn([C@@H]3O[C@H](CO)[C@H](O[C@H]4O[C@H](CO)[C@H](O)[C@H](O)[C@H]4O)[C@H](O)[C@H]3O)nn2)cc(OCc2cn([C@@H]3O[C@H](CO)[C@H](O[C@H]4O[C@H](CO)[C@H](O)[C@H](O)[C@H]4O)[C@H](O)[C@H]3O)nn2)c1` is 0.0135 mM.

Usually IC50 stands for the point on the concentration scale where inhibition reaches its midpoint. A lower IC50 goes with inhibition by little substance.
